From PubChem BioAssay (NCI)
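Dose response: 5 concentrations. Exposure: 48 h. Format: 96-well plates. Endpoint: linear interpolation; highest concentration if not reached. TGI is the concentration that stops growth completely.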

Experiments:
Assay in all cases: DTP human tumour cell line panel, 48 h
OVCAR-5 ovarian = test system: OVCAR-5 ovarian
UACC-257 melanoma = test system: UACC-257 melanoma
DMS 273 small cell lung = test system: DMS 273 small cell lung
KM20L2 colon = test system: KM20L2 colon
DMS 114 small cell lung = test system: DMS 114 small cell lung
LXFL 529 NSCLC = test system: LXFL 529 NSCLC
DLD-1 colon = test system: DLD-1 colon
XF 498 CNS = test system: XF 498 CNS
M19-MEL melanoma = test system: M19-MEL melanoma
SNB-78 CNS = test system: SNB-78 CNS

SMILES | TGI (OVCAR-5 ovarian) [µM] | TGI (UACC-257 melanoma) [µM] | other results
C=CCNC1=C2C[C@@H](C)C[C@H](OC)[C@H](O)[C@@H](C)/C=C(\C)[C@H](OC(N)=O)[C@@H](OC)/C=C\C=C(/C)C(=O)NC(=CC1=O)C2=O | 22.6 | 21.3 | –
CC(=O)Oc1c2ccsc2c(OC(C)=O)c2ccsc12 | – | 0.4 | –
CN1C(=O)C(C(=O)Nc2ccccn2)C2C[C@@]1(C)Oc1ccccc12 (stereo partly specified) | > 100 | > 100 | –
C=CCOCn1cc(F)c(=O)[nH]c1=O | – | > 100 | –
CO[C@@]12C[C@@H](C)[C@]34O[C@H]3C[C@]3(C)O[C@]43CC1=C(C)C(=O)O2 | > 100 | > 100 | –
COc1ccccc1/C=C1\S/C(=N/Nc2nc(C)c(C(C)=O)s2)NC1=O | > 100 | > 100 | –
Cc1cn(Cc2cccc(C3=NCCCN3)c2)c(=O)n(Cc2cccc(C3=NCCCN3)c2)c1=O | > 100 | > 100 | –
O=c1[nH][nH]c(=O)n1/N=C/c1ccccc1 | > 100 | > 100 | –
COC(=O)c1cc(O)c(O)c(O)c1-c1c(O)c(O)c(O)c(SC[C@H](NC(=O)OCc2ccccc2)C(=O)OCc2ccccc2)c1C(=O)OC | > 100 | > 100 | –
O=C(COc1ccccc1)N(C(=O)N1CCN(c2ccccc2)CC1)S(=O)(=O)c1ccccc1 | > 100 | > 100 | –
CCc1c(CNC2=NCCN2)c(CC)c(CNC2=NCCN2)c(CC)c1CNC1=NCCN1 | > 100 | > 100 | –
Cc1ccc(S(=O)(=O)N/N=C2\CCC3(O)CC2(C)CCC2C3CC2(C)C)cc1 (stereo unspecified) | > 100 | > 100 | –
C=CCN1C[C@H](C)N([C@H](c2ccc(C(=O)N(CC)CC)cc2)c2cccc(OC)c2)C[C@H]1C | > 100 | 52.3 | –
O=C1CCC2c3ccccc3NCN12 (stereo unspecified) | > 100 | > 100 | –
Cc1nc2cc3ccccc3cc2[nH]c1=O | > 100 | > 100 | –
CN(/N=C/c1ccccn1)C1=NCCCN1 | > 100 | > 100 | –
CC(C)OC(=O)[C@H]1ON2O[C@H](O[C@@H]3CCCC[C@H]3c3ccccc3)C([Si](C)(C)c3ccccc3)[C@H]3OC(=O)[C@@H]1C32 (stereo partly specified) | – | > 100 | –
COc1c(C(C)(C)C)cc(CC2C(=O)C=CC2=O)cc1C(C)(C)C | 35.8 | 32.4 | –
CC(C)(C)[C@H]1CO[C@]2(c3ccccc3)[C@@H]3C[C@@H]3C(=O)N12 | > 100 | > 100 | TGI (DMS 273 small cell lung): > 100 µM; TGI (KM20L2 colon): > 100 µM; TGI (DMS 114 small cell lung): > 100 µM; TGI (LXFL 529 NSCLC): > 100 µM; TGI (DLD-1 colon): > 100 µM; TGI (XF 498 CNS): > 100 µM; TGI (M19-MEL melanoma): > 100 µM
O=C(CSCC(=O)N/N=C\c1ccc(O)c(O)c1O)N/N=C\c1ccc(O)c(O)c1O | – | 50 | –
c1ccc(-c2c(-c3cccs3)[nH]c(-c3cccs3)c2-c2ccccn2)nc1 | 66.6 | 43.6 | –
O=[N+]([O-])c1ccc2sc(/C=N/c3ccccn3)cc2c1 | > 100 | > 100 | –

SMILES | TGI (OVCAR-5 ovarian) [µM] | TGI (UACC-257 melanoma) [µM] | other results
O=[N+]([O-])c1cc(-[n+]2cc([O-])on2)ccc1Cl | 32.4 | 27.5 | –
c1ccc2c(c1)c1c3c(c4c(n32)=NCCN4)CCC1 | > 100 | > 100 | –
O=CC1C(Cl)=Nc2nc3ccccc3n2C1c1ccccc1 (stereo unspecified) | 79.6 | 58.2 | –
Cc1cc(S(=O)(=O)Nc2nnc3ccccn23)c(S)cc1Cl | > 100 | > 100 | –
C/C(=N\Nc1nc2ccccc2[nH]1)c1cnccn1 | > 100 | > 31 | –
CCOC(=O)C1C(c2ccc(OC)cc2)c2c([nH][nH]c2=O)CC1(C)O (stereo unspecified) | > 100 | > 100 | –
CCOC(=O)/C(C(=S)NCc1ccccc1)=C(/N)N1CCCC1 | > 100 | > 100 | –
CN(C)CCCNC(=O)c1cc(NS(=O)(=O)c2ccc3c(c2)C(=O)c2ccccc2C3=O)cn1C | > 100 | 37.6 | –
CCNC1=C(NC(=O)c2ccccc2)C(=O)c2ccccc2C1=O | > 100 | 64.5 | –
CCOC(=O)CCC(NC(=O)c1ccc(Oc2nc3c(N)cc(C(F)(F)F)cc3nc2-c2ccccc2)cc1)C(=O)OCC (stereo unspecified) | > 100 | > 31.6 | –
CCS(=O)c1c2cc(OC)ccc2nc2ccc(OC)cc12 (stereo unspecified) | 41.7 | 12 | –
CCOC(=O)NN(C(=O)OCC)C(=C(C1=CCCCC1)N1CCOCC1)N(NC(=O)OCC)C(=O)OCC | > 100 | – | –
COc1cc([C@@H]2c3cc4c(cc3[C@@H](OC(=O)c3cccc(N)c3)C3COC(=O)[C@@H]32)OCO4)cc(OC)c1O (stereo partly specified) | 60.1 | > 77.3 | TGI (DMS 273 small cell lung): > 100 µM; TGI (KM20L2 colon): 26.8 µM; TGI (LXFL 529 NSCLC): 51 µM; TGI (DLD-1 colon): > 100 µM; TGI (SNB-78 CNS): > 100 µM; TGI (XF 498 CNS): 35 µM; TGI (M19-MEL melanoma): > 100 µM
Nc1cc2ncnn2c(SCC(=O)N/N=C/C(Br)=C\c2ccccc2)n1 | 55.2 | 25.3 | –
COC1=C2CC(C)CC(OC)C(OC(=O)CN)[C@H](C)/C=C(\C)C(OC(N)=O)C(OC)/C=C\C=C(/C)C(=O)NC(=CC1=O)C2=O (stereo partly specified) | 13.8 | 1.02 | –
O=[N+]([O-])c1cc(N=Nc2c(O)ccc3cc(S(=O)(=O)O)ccc23)c(O)c([N+](=O)[O-])c1 | > 100 | > 100 | –
c1ccc(Cn2c(-c3ccc(-c4ccccc4)cc3)cc3ccccc32)cc1 | > 100 | > 100 | –
COc1ccc2c(c1)C(OC)C1c3c(cc4c(c3-2)OCO4)CCN1C (stereo unspecified) | 16.8 | 13 | –
Nc1nc(Cl)c2ncn(Cc3cccc(CCl)c3)c2n1 | 22.8 | 20.7 | –
COc1ccc(-c2csc(Cc3nc4c(Br)cc(Br)cc4c(=O)n3-c3ccc(OC)cc3)n2)cc1 | > 100 | > 100 | –
CN(C)c1ccc(/C=N/c2nc3cc4sc(/N=C/c5ccc(N(C)C)cc5)nc4cc3s2)cc1 | > 100 | > 100 | –
N#CC(C#N)=c1c2ccccc2c(=C(C#N)C#N)c2ccccc12 | 43.3 | 51.2 | –

SMILES | TGI (OVCAR-5 ovarian) [µM] | TGI (UACC-257 melanoma) [µM] | other results
COC(=O)Cc1c([C@H]2[C@H](CC(=O)OC)c3ccccc3N2S(=O)(=O)c2ccc(C)cc2)[nH]c2ccccc12 | > 100 | > 100 | –
C[P+](c1ccccc1)(c1ccc(Cl)cc1)c1ccc(Cl)cc1 | 71.5 | 32.6 | –
CC(=O)C1C(=O)C(=O)N(c2ccc([N+](=O)[O-])cc2)C1=O (stereo unspecified) | > 100 | > 100 | –
CCOC(=O)CSC1NC(C(=O)OC)CC1OC (stereo unspecified) | > 100 | > 100 | –
Nc1ncc(C=O)c(NCC2(CO)CCC2)n1 | > 100 | > 100 | –
Nc1nc(N)c2ncn(CCOC(c3ccccc3)P(=O)(O)O)c2n1 (stereo unspecified) | > 100 | > 100 | TGI (DMS 273 small cell lung): > 100 µM; TGI (KM20L2 colon): > 100 µM; TGI (DMS 114 small cell lung): > 100 µM; TGI (DLD-1 colon): > 100 µM; TGI (SNB-78 CNS): > 100 µM; TGI (XF 498 CNS): > 100 µM; TGI (M19-MEL melanoma): > 100 µM
Cc1ccc(S(=O)(=O)N/N=C2\CCCCCCCCCCC2CN(C)C)cc1 (stereo unspecified) | 30.9 | 28.7 | –
COc1ccc(CNc2nc(NCc3ccc(OC)cc3)nc(NC3CCCC3)n2)cc1 | > 44.7 | > 100 | –
CN(C)C(=S)C(Cl)(c1ccccc1)c1ccccc1 | > 100 | > 100 | –
O=C1OCC(c2ccc(Cl)cc2)=C1Cl | 44.4 | > 100 | –
CC/C(Cl)=N\OC(=O)Nc1ccc(OC)c(C)c1 | 71.6 | 37 | –
COC(=O)c1c(O)ccc2c1c1c(n2Cc2ccccc2OC)C(=O)c2ccccc2C1=O | 40.1 | 55.1 | –
S=C(N/N=C/c1ccccn1)N1CC2CCC(CC2)C1 | 18 | < 0.039 | –
O=c1oc2ccccc2c(O)c1C(c1ccc(-c2ccccc2)cc1)c1c(O)c2ccccc2oc1=O | – | > 100 | –
OCCCCn1cc(Cn2ncc3c(NCc4ccccc4)ncnc32)nn1 | > 100 | > 100 | –
O=S(=O)(O)c1ccc2c(N=Nc3ccc(S(=O)(=O)O)c4ccccc34)c(O)c(S(=O)(=O)O)cc2c1 | > 100 | > 100 | –
COC(=O)c1c(C)c2c(c(C)c1C(=O)OC)-c1c(C)ccc3ccc(C)c-2c13 | > 100 | > 100 | –
CC1(C)c2ccccc2N2O[C@@H]3C(=O)N(c4ccccc4)C(=O)[C@@H]3C21c1ccccc1 (stereo partly specified) | – | > 100 | TGI (DMS 273 small cell lung): > 100 µM; TGI (DMS 114 small cell lung): > 100 µM; TGI (LXFL 529 NSCLC): > 100 µM; TGI (DLD-1 colon): > 100 µM; TGI (SNB-78 CNS): > 100 µM; TGI (XF 498 CNS): > 100 µM; TGI (M19-MEL melanoma): > 100 µM
COc1cc2cc3c4c(cc(OC)c(OC)c4c2cc1OC)CCN3C | 49 | 27.3 | –
O=C1c2ccccc2C(=O)c2c(NC(=O)C3CC3)ccc(NC(=O)C3CC3)c21 | > 100 | > 100 | –
COc1ccc(CCNC(=O)c2ccccc2C2c3ccc(OCc4ccccc4)cc3Oc3cc(OCc4ccccc4)ccc32)cc1OC | > 100 | > 100 | –
